In patent US20230041065A1, “METHODS FOR GENERATING HEMATOPOIETIC STEM CELLS” (The Brigham and Women`s Hospital, Inc., priority 2019, published 2023):
Entries after “also recorded” stand apart in the source; their conditions may differ.

Assays:
[1] = tested on: human iPSC-derived hemogenic endothelial cells; assay: Yoda1 treatment of human iPSC-derived hemogenic endothelial cells: EHT and gene expression; assay type: cell-based
Description: To determine the role of Dnmt3b in the EHT, we analyzed the endothelial and hematopoietic gene expression levels using whole transcriptome analyses. […] To consolidate our findings, we further independently measured the transcript levels of endothelial and hematopoietic genes. […] In summary, pulsation-mediated Piezo1 activation enhances Dnmt3b expression to repress endothelial genes, stimulating the endothelial-to-HSC transition. To analyze the conserved role of PIEZO1-mediated mechanosensitive mechanisms in human hematopoiesis, we employed directed differentiation of constitutive RUNX1c:tdTomato human induced pluripotent stem cells (iPSCs) to hemogenic endothelial cells, and treated such hemogenic endothelial cells with Yoda1.
(§1) Embryoid body and hemogenic endothelium differentiation was performed as described in (Sugimura et al. 2017; Ditadi et al. 2015). Briefly, hiPSC colonies were dissociated with 0.05% trypsin for 5 min at 37° C., washed with PBS+2% FBS, and resuspended in StemPro-34 (Invitrogen, 10639-011) supplemented with L-glutamine (2 mM), penicillin/streptomycin ([…]), ascorbic acid (1 mM), human holo-Transferrin ([…], Sigma T0665), monothioglycerol (MTG, 0.4 mM), BMP4 (10 ng/ml), and Y-27632 (10 μM). Five million cells were seeded into 10 cm dishes (Ezsphere, Asahi Glass) for the spheroid formation. On Day 1, bFGF (5 ng/ml) and BMP4 (10 ng/ml) was added to the medium. On Day 2, the media was changed with the StemPro-34 supplemented with SB431542 (6 μM), CHIR99021 (3 μM), bFGF (5 ng/ml), and BMP4 (10 ng/ml). On Day 3, the medium was replaced with StemPro-34 supplemented with VEGF (15 ng/ml) and bFGF (10 ng/ml). On day 6, the medium was changed to StemPro-34 supplemented with bFGF (5 ng/ml), VEGF (15 ng/ml), interleukin (IL)-6 (10 ng/ml), IGF-1 (25 ng/ml), IL-11 (5 ng/ml), SCF (50 ng/ml) and EPO (2IU). The cells were maintained in a 5% CO2, 5% O2 and 95% humidity incubator. All cytokines were purchased from Peprotech.

[2] = tested on: human iPSC-derived MACS-sorted CD34+ cells; assay: Hematopoietic CFU assays of human iPSC-derived MACS-sorted CD34+ cells; assay type: cell-based; conditions: 20,000 hCD34+ cells per sample
Protocol: as §1, with “Peprotech. […]” for “Peprotech.”

Dnmt3a = Dnmt3a protein level in nuclear fractions of E11.5 AGM cells; assay type: cell-based, mouse
Protocol: RNA-sequencing analyses were performed to measure gene expression patterns in mouse AGM treated with cyclic strain or pharmacological modulators. Using computational algorithms, hierarchical clustering was performed of differentially expressed genes as well as measured their overrepresented biological processes and pathways. Gene expression clusters of differentially expressed genes were analyzed and their mean expression level across cell populations compared. Next, Venn comparison of up- and down-genes was constructed to analyze candidate(s) important for cyclic strain- or pharmacological modulator(s)-mediated the endothelial-to-HSC transition. Furthermore, Dnmt3b and Dnmt3a protein expressions were analyzed in nuclear fractions of mouse AGM cells using EqiQuick assay kits. Data are presented as mean±s.d. unless otherwise noted. Statistical analyses were performed by paired or un-paired Student's t-tests. Significance was set at P<0.05.
Nuclear extracts from AGM explants were harvested using an EpiQuik Nuclear Extraction Kit (Epigentek Group Inc.). Dnmt3b and Dnmt3a protein levels were analyzed using a colorimetric EpiQuik Assay Kit (Epigentek Group Inc.), according to the manufacturer's instructions. Concentration of Dnmt3b and Dnmt3a is relative to 1 μg of nuclear extract proteins.

[3] = human iPSC-derived hemogenic endothelial cells

Clc1cccc(Cl)c1CSc1nnc(-c2cnccn2)s1 [Yoda1, 2-[5-[[(2,6-Dichlorophenyl)methyl]thio]-1,3,4-thiadiazol-2-yl]-pyrazine]
human endothelial-to-hematopoietic transition ([1]; RUNX1c:tdTomato human iPSC-derived hemogenic endothelial cells): stimulated the human endothelial-to-hematopoietic transition | DNMT3A expression [1, 3]: not DNMT3A expression | DNMT3B expression [1, 3]: enhanced DNMT3B expression | expression of endothelial genes (VEGFA, HEY2, GPR116, GNA13, CDH5, PLXND1) [1, 3]: silenced endothelial genes | expression of hematopoietic genes (RUNX1, SPI1, CEBPA, TAL1, GATA2) [1, 3]: induced the expression of hematopoietic genes | multipotent GEMM progenitor formation [2]: elevated multipotent hematopoietic progenitor formation and human hematopoiesis; also recorded: stimulates multipotent GEMM progenitor formation and human hematopoiesis | Dnmt3a protein expression (Dnmt3a): not Dnmt3a; also recorded: without impacting the expression of Dnmt3a
